From patent EP0299528A1, “Doxorubicin hydrochloride nonaqueous solution” (Bristol-Myers Squibb Company, priority 1987, dated 1989)
Structures can show the parent of a compound that is named as a salt. Where two headings read alike, the source gives them in different places.

Tests used:
[1] = Description: The pH is measured on solutions diluted to 1 mg/ml with water or 70% water/30% acetonitrile (v/v). […] An amount of citric acid is used which will provide a solution pH in the range of about 3-5, preferably 3-4.5.
We have tested a number of antioxidants including α-tocopherol, tert-butylhydroquinone (TBHQ), sodium formaldehyde bisulfite, butylated hydroxy anisole (BHA), butylated hydroxy toluene (BHT), sodium bisulfite and propyl gallate. […] Generally an amount of α-tocopherol, tert-butylhydroquinone or sodium formaldehyde bisulfite is employed in the range of about 0.1-2 mg/ml. The preferred concentration of antioxidant is about 0.5-2 mg/ml with about 2 mg/ml being most preferred.
Glass vials may conveniently be used as the container.

[2] = Solubility of doxorubicin HCl in nonaqueous solvents; type: physicochemical; settings: organic solvent or mixture
[3] = cited from earlier work; for reconstituted solution remains stable: in 0.9% NaCl solution, Ketchum, et al. 1981
[4] = cited from earlier work

## CCCCCCCC/C=C\CCCCCCCC(=O)OCCOCC(OCCO)C1OCC(OCCO)C1OCCO (stereo not drawn) [Tween-80]
[1]
  effect of additive on stability of the solutions: did not improve stability

## O=C(O)CC(O)(CC(=O)O)C(=O)O [citric acid]
[1]; acid used to reach a pH range of about 3-5
  stability of the solutions with the acid used for pH control: optimum stability

## COc1cccc2c1C(=O)c1c(O)c3c(c(O)c1C2=O)C[C@@](O)(C(=O)CO)C[C@@H]3O[C@H]1C[C@H](N)[C@H](O)[C@H](C)O1 [doxorubicin HCl, doxorubicin hydrochloride]
[2]; glycerol formal, pyrrolidinones, glycerol formal, 2-pyrrolidinone and 1-methyl-2-pyrrolidinone, read-out: concentration of solutions produced
  solubility: ≥ 5000 µg/mL
[2]; glycols with 5-10% water, propylene glycol, 1,2-dihydroxybutane, 1,3-dihydroxypropane with addition of 5-10% (v/v) water, read-out: solubility
  solubility: ~20000 µg/mL
[2]; nonaqueous solvents, same three solvents after short-term (0.5-1 hour) warming (60-80°C) with vigorous stirring, read-out: solubility
  solubility: ~10000 µg/mL
[2]; nonaqueous solvents, with heating, polyethylene glycols, ethanol, benzyl alcohol, dimethylisosorbide, ethyl lactate, Solketol, Cremophors, Pluronics, read-out: solubility
  solubility: < 5000 µg/mL
[2]; propylene glycol, 1,2-dihydroxybutane, 1,3-dihydroxypropane, room temperature, in propylene glycol, 1,2-dihydroxybutane and 1,3-dihydroxypropane, read-out: solubility
  solubility: < 5000 µg/mL
[1]; glycerol formal, 2-pyrrolidinone and 1-methyl-2-pyrrolidinone
  chemical stability of solutions: chemically unstable
[1]; short-term (0.5-1 hour) warming (60-80°C) in propylene glycol, 1,2-dihydroxybutane or 1,3-dihydroxypropane
  potency loss: no potency loss
[1]; stored at 4°C to -20°C, seeding with crystalline doxorubicin HCl does not affect crystallization
  physical stability of the solution on storage: remains in solution
[3]; 5°C
  reconstituted solution remains stable: seven
[3]; room temperature
  reconstituted solution remains stable: seven
[3]; refrigerated at 4°C, Hoffman, et al. 1979
  reconstituted solutions stable (≦10% potency loss): up to six
[4]; Tris or phosphate buffers using HCl to adjust pH, Janssen, et al. 1985
  pH of maximum stability: 4
[4]; reconstitution solvent 5% Dextrose Injection, USP, Poochikian, et al. 1981
  pH of optimum stability: ~4.5

## O=S(=O)(O)CO [sodium formaldehyde bisulfite]
[1]
  stability of the solutions with the antioxidant: resulted in the desired stability

## CC(C)(C)c1cc(O)ccc1O [tert-butylhydroquinone]
[1]; elevated temperatures as well as room temperature (25°C) or below
  stability of the solutions with the antioxidant: resulted in the desired stability

## Cc1c(C)c2c(c(C)c1O)CCC(C)(CCCC(C)CCCC(C)CCCC(C)C)O2 (stereo not drawn) [α-tocopherol]
[1]
  stability of the solutions with the antioxidant: resulted in the desired stability
